Assay [1] deals with T1, RARγ (Homo sapiens, UniProt P13631).
T1 sequence (P13631 1-454): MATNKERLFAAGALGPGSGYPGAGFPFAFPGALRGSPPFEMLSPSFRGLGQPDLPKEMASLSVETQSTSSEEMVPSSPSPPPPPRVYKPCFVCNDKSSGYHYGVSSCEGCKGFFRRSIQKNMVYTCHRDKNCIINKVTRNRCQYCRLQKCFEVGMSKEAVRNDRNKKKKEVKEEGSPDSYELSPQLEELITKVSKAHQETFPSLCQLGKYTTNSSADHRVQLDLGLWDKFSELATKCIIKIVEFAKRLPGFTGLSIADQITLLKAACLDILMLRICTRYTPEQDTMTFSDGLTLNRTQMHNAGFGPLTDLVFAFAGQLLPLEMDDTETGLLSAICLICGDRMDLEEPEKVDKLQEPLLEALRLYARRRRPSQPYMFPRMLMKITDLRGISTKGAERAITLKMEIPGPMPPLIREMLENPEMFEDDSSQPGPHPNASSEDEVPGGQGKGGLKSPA
The assay is described as follows: nuclear receptor radiolabeled competition binding, RARγ. As for the experimental part:
For active retinoids, IC50 values were determined by titration with varying concentrations of UAB retinoids.

A further assay addresses T2, RARα (Homo sapiens, UniProt P10276).
T2 sequence (P10276 1-462): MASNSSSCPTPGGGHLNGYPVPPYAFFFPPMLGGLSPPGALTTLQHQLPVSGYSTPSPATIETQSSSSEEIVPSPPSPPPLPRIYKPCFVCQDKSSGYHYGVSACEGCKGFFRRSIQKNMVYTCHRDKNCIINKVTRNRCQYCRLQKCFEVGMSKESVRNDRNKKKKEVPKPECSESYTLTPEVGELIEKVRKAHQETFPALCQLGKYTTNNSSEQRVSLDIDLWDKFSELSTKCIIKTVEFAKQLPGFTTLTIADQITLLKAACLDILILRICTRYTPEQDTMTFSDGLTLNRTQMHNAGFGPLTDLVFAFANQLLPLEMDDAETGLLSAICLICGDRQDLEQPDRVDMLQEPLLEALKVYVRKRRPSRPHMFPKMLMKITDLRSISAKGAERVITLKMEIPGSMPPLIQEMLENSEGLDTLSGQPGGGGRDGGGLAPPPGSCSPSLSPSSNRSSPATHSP
As to the kind of experiment: cell-based. As for the experimental part: (§1) These assays were performed in CV-1 cells with the RAR or RXR gene and the chloramphenicol acetyltransferase (CAT) reporter gene containing TREpal with a thymidine kinase promoter [(TREpal)2 -tk-CAT]. Twenty-four hours after transfection, cells were treated with a single dose of retinoid and the cell extracts were assayed for b-galactosidase and CAT activity. The antagonistic effects of UAB30 retinoids on the transcription of RAR-α were also determined in CV-1 cells. The methods are nearly identical to those used to perform transcriptional assays. These studies utilized the CAT reporter gene [(TREpal)2 -tk-CAT]. […] After 24 hours, cells were harvested and the transcriptional effects were measured in relative CAT activity, after correction with β-galactosidase activity for transfection efficiency. […] Experiments were performed in triplicate and the data were averaged.
(§2) UAB30 isomers were evaluated in assays which measures their functional activity within cells to induce RARα-, RARβ-, and RARγ-mediated transcriptional activity. CV-1 cells were transiently transfected with DNA plasmid from the appropriate RAR subtype and (TREpal)2 -tk-CAT (9, 19).

The target of assay [2] is T1, RARγ. The assay is described as follows: RARγ-mediated transcriptional activation in CV-1 cells. It counts as cell-based. The method, then: as §1, §2
The next assay deals with NB4 cells. As to the kind of experiment: retinoid induction of differentiation of NB4 cells (NBT). In kind it is cell-based, Human. Particulars: read-out: ED30 NB4 cell differentiation.
A further assay relates to JMML cells. As to the kind of experiment: inhibition of JMML spontaneous CFU-GM colony formation. Particulars: Homo sapiens.

Structures are written as SMILES. Read-outs that look alike come from different tables or passages of the source.

Description for JMML cells: Mononuclear cells were separated by density gradient centrifugation, washed, and frozen in aliquots. […] No growth factors or other exogenous stimuli were added to the cultures. UAB retinoids and retinoic acid isomers were dissolved in either 100% ethanol or DMSO. Appropriate dilutions were made, and controls using the respective ethanol or DMSO concentration were set up in parallel. Varying doses of retinoids were added only once, 24 hours after initiation of the soft agar assays, by pipetting the retinoid solution on top of the soft agar and allowing the solution to enter the agar and interact with the cells by diffusion. The cultures were incubated for 14 days at 37° C. in a humidified atmosphere with 5% CO2.

`CCC1=C(C(C)C)/C(=C/C(C)=C/C=C/C(C)=C/C(=O)O)CCC1` [(all-E)-UAB8] came in with an IC50 on RARγ [1] of 10 nM. Besides, the values for the EC50 on RARα and on RARγ [2] were 0.033 µM and 2 nM, respectively. Besides, the EC30 in the assay on NB4 cells (in combination with 9-cis-UAB8 (FIG. 8B)) came to 0.025 µM; in the assay on NB4 cells (retinoid alone, 3 days), 0.11 µM. The inhibition at 1 µM in the assay on JMML cells (read-out: normalized percent inhibition of CFU-GM colony growth, patient J43 (%)) amounted to 98%; with JMML cells (read-out: normalized percent inhibition of CFU-GM colony growth, patient J84 (%)) it was 103%.

Usually IC50 stands for the concentration at which inhibition is half-maximal. Higher therefore signals weaker potency in that assay. For orientation: EC50 means the midpoint of the concentration-response curve. Low readings indicate a more potent agent, high ones a less potent agent. What is called inhibition is the relative decrease from the control value, in per cent.
